Data set [1] relates to CYP3A4. In words: in vitro. The following applies: human, primary human hepatocytes (PHHs) cultured in liver MPS.
Data set [2] deals with PHHs in sandwich cultures. In words: Albumin production, hepatotoxicant sensitivity, sandwich cultures. Format: cell-based. The note with it: Homo sapiens, 48 h, read-out: EC50, albumin secretion.
For data set [3], the system named is PHHs in spheroids. As to the kind of experiment: LDH production, hepatotoxicant sensitivity, spheroids. The following applies: Homo sapiens, 48 h, read-out: EC50, LDH production. Format: cell-based.
Data set [4] is described as follows: in vitro. The note with it: human, primary human hepatocytes (PHHs) in 2D sandwich cultures.
In data set [5] the test system is PHHs in sandwich cultures. As to the kind of experiment: LDH production, hepatotoxicant sensitivity, sandwich cultures. Format: cell-based. The following applies: Homo sapiens, 48 h, read-out: EC50, LDH production.
Data set [6] relates to PHHs in spheroids. In words: Albumin production, hepatotoxicant sensitivity, spheroids. Format: cell-based. The note with it: Homo sapiens, 48 h, read-out: EC50, albumin secretion.
Data set [7] concerns PHHs in sandwich cultures. The following applies: sandwich cultures vs liver MPS.
Data set [8] has as its system PHHs in liver MPS. As to the kind of experiment: LDH production, hepatotoxicant sensitivity, liver MPS. The data set is classed as cell-based. The note with it: Homo sapiens, 48 h, read-out: EC50, LDH production.
The subject of data set [9] is PHHs in the liver MPS. As to the kind of experiment: Drug metabolism and phase II metabolites in the liver MPS.
The subject of data set [10] is PHHs in liver MPS. As to the kind of experiment: Albumin production, hepatotoxicant sensitivity, liver MPS. Format: cell-based. The following applies: Homo sapiens, 48 h, read-out: EC50, albumin secretion.
The test system of data set [11] is CYP3A4. As to the kind of experiment: in vitro. The note with it: human, primary human hepatocytes (PHHs) in 2D sandwich cultures.
Data set [12] relates to CYP3A4. As to the kind of experiment: in vitro. The following applies: human, primary human hepatocytes (PHHs) cultured as 3D spheroids.
Data set [13] can be described thus: in vitro. The following applies: human, primary human hepatocytes (PHHs) cultured as 3D spheroids.
Data set [14] concerns PHHs in spheroids. The note with it: spheroids vs liver MPS.
For data set [15] the following is noted: cited from earlier work.
Data set [16] can be described thus: Stability of glucuronidated diclofenac in maintenance medium at 37°C. Format: physicochemical. The following applies: 50 µM.

As for `Cc1c(C)c2c(c(C)c1O)CCC(C)(COc1ccc(CC3SC(=O)NC3=O)cc1)O2` (stereo not drawn) [Troglitazone, troglitazone], the concentration giving a half-maximal response (EC50) (in general, the concentration needed to bring the measured effect to its halfway point) at 48 h in data set [1] was […]; in data set [11] it was […]; in data set [12], […]. For the same compound, the EC50 in data set [2] was 2.6 µM; in data set [3], 94.2 µM; in [5] it was 77.7 µM; in [6] it was 51.9 µM; in data set [8], 407 µM; in data set [10] it was 34.6 µM. For the same compound, the results for the EC50 at 2 days in data set [4] and in [13] were 35.1 µM and 67.1 µM, respectively. The “R, Spearman correlation of CYP3A4 response relative to liver MPS” value is recorded as 0.77 in [7] and 0.80 in data set [14]. Besides, the “Extent of metabolism of parent in liver MPS medium” value in data set [9] (50 and 100 µM, 48 h of incubation) was “almost completely metabolized”.

On to `CC/C(=C(\c1ccccc1)c1ccc(OCCN(C)C)cc1)c1ccccc1` [Tamoxifen, tamoxifen], for which the EC50 at 2 days in data set [4] worked out at 23.8 µM.

`C[C@H]1O[C@@H](O[C@H]2[C@@H](O)C[C@H](O[C@H]3[C@@H](O)C[C@H](O[C@H]4CC[C@@]5(C)[C@H](CC[C@@H]6[C@@H]5C[C@@H](O)[C@]5(C)[C@@H](C7=CC(=O)OC7)CC[C@]65O)C4)O[C@@H]3C)O[C@@H]2C)C[C@H](O)[C@@H]1O` [Digoxin, digoxin]: the EC50 at 48 h in data set [1] was […]; in data set [11], […]; in [12] it was […]. Besides, the concentration giving a half-maximal response (EC50) in data set [2] came out at 157 µM; in [3], 8.1 µM; in data set [5], 102 µM; in data set [6], 5.4 µM; in data set [8], 146 µM; in [10] it was 41.6 µM. Besides, the EC50 at 2 days is 122 µM in [4] and 6.4 µM in data set [13]. Also, the entries for the “R, Spearman correlation of CYP3A4 response relative to liver MPS” value in data set [7] and in [14] were […] and −0.04, respectively.

With `O=C(O)Cc1ccccc1Nc1c(Cl)cccc1Cl` [diclofenac], the “Concentration in liver MPS culture medium over time” value in data set [9] (50 µM, 4, 8, 24 and 48 hours) is given as “decrease over time”.

Take `N[C@@H]1[C@H]2CN(c3nc4c(cc3F)c(=O)c(C(=O)O)cn4-c3ccc(F)cc3F)C[C@@H]12` [trovafloxacin]: the Hepatotoxicity in humans entry in data set [15] was “induces idiosyncratic hepatotoxicity”.

As to `O=C(Cc1ccccc1Nc1c(Cl)cccc1Cl)O[C@@H]1O[C@H](C(=O)O)[C@@H](O)[C@H](O)[C@H]1O` [glucuronidated diclofenac, diclofenac glucuronide], the “Time of incubation to become unstable in solution” value in data set [16] was at most 2 h. For the same compound, the “Detection in the MPS medium” value in data set [9] (after 48 h, diclofenac dosed) was “not detected”.

As for `C[C@H]1COc2c(N3CCN(C)CC3)c(F)cc3c(=O)c(C(=O)O)cn1c23` [levofloxacin], the Hepatotoxicity result in data set [15] is given as “does not cause hepatotoxicity”.

Values taken from article PMC8212739 (Clinical and Translational Science, 2021).
